For one experiment, the system named is dsDNA and RNA. As to conditions: cited from earlier work.
Experiment [1] deals with breast cancer cells (MCF-7). In words: One-photon and two-photon fluorescent cellular nucleus imaging (CLSM). The class given is cell-based. The conditions noted are these: 2 h, signals above 560 nm. The procedure:
One-photon and two-photon fluorescence images of the MCF-7 cells were then obtained.
OPEF imaging was obtained by excitation of the cells at 488 nm and collection of fluorescence above 560 nm under the fixed parameters. […] As nucleolus is the site of ribosomal RNA synthesis, it has the highest concentration of RNA in nucleus.
For TPEF imaging, the dye concentrations are fixed at 1 μM, and the cellular images were acquired by excitation of the cells at near-infrared wavelength (760 nm) and collection of signals above 560 nm.

With SYTO 9, in the experiment with dsDNA and RNA, the “light-up response toward dsDNA and RNA (commercial dyes)” value was “nearly equal light-up responses toward dsDNA and RNA”.

Regarding `CCCN(CCCN(C)C)c1cc(/C=C2/Sc3ccccc3N2C)c2ccccc2[n+]1-c1ccccc1` [SG, SYBR Green I], the “two-photon fluorescence (TPEF) imaging of nucleus” value in experiment [1] (MCF-7, 1 μM dye, excitation at 760 nm) is recorded as “does not provide a clear cellular image”. The “one-photon fluorescence (OPEF) imaging: uptake and localisation” value in experiment [1] (MCF-7, dye 1 μM (also 0.1 and 0.02 μM), excitation at 488 nm) is “homogenously-stained nucleus pattern”. Also, in the experiment with dsDNA and RNA, the “light-up response toward dsDNA and RNA (commercial dyes)” value is on record as “only shows strong light-up response toward dsDNA”.

Source of the values: patent US8507290B2, “Water-soluble silsesquioxanes as organic quantum dots for sensing and imaging” (National University of Singapore, priority 2009, dated 2013).
